Results reported in paper PMC7758422, “Design, Synthesis, and Antitumor Activities Study of Stapled A4K14-Citropin 1.1 Peptides” (Frontiers in Chemistry, 2020).

Test: on-resin all-hydrocarbon stapling by ring-closing metathesis of S5/S5 (i,i+4) or R8/S5 (i,i+7), Grubbs first-generation catalyst (0.45 mmol per 0.15 mmol resin, 3 equiv), then TFA/TIPS/phenol/H2O cleavage and RP-HPLC
Settings: the molecule shown is the open-chain precursor, 33-membered ring, 1,2-dichloroethane, 25.0 °C, 4.0 h, 36 steps

## C=CCCCCCC[C@@](C)(NC(=O)CNC(C)=O)C(=O)N[C@@H](Cc1ccccc1)C(=O)N[C@@H](C)C(=O)N[C@H](C(=O)N[C@H](C(=O)N[C@@H](CCCCNC(=O)OC(C)(C)C)C(=O)N[C@@H](CCCCNC(=O)OC(C)(C)C)C(=O)N[C@@](C)(CCCC=C)C(=O)N[C@@H](C)C(=O)N[C@@H](COC(C)(C)C)C(=O)N[C@H](C(=O)N[C@H](C(=O)N[C@@H](CCCCNC(=O)OC(C)(C)C)C(=O)NCC(=O)N[C@@H](CC(C)C)C(N)=O)[C@@H](C)CC)C(C)C)[C@@H](C)CC)C(C)C
  ring closure, overall yield: 63 % yield

## C=CCCCCCC[C@@](C)(NC(=O)[C@@H](NC(=O)[C@H](C)NC(=O)[C@H](Cc1ccccc1)NC(=O)[C@H](CC(C)C)NC(=O)CNC(C)=O)C(C)C)C(=O)N[C@@H](CCCCNC(=O)OC(C)(C)C)C(=O)N[C@@H](CCCCNC(=O)OC(C)(C)C)C(=O)N[C@H](C(=O)N[C@@H](C)C(=O)N[C@@H](COC(C)(C)C)C(=O)N[C@H](C(=O)N[C@@](C)(CCCC=C)C(=O)N[C@@H](CCCCNC(=O)OC(C)(C)C)C(=O)NCC(=O)N[C@@H](CC(C)C)C(N)=O)C(C)C)C(C)C
  ring closure, overall yield: 62 % yield
